Experimental findings from article PMC9721423, “Novel benzo chromene derivatives: design, synthesis, molecular docking, cell cycle arrest, and apoptosis induction in human acute myeloid leukemia HL-60 cells” (Journal of Enzyme Inhibition and Medicinal Chemistry, 2022) are described below.

Where two headings read alike, the source gives them in different places.

Holding throughout (experiment): cells
What all share (set-up): species or system NCI-60 human tumour cell lines; NCI-60 five-dose growth inhibition screen, sulforhodamine B protein stain
In general terms: In SRB staining, fixed cells bind dye roughly in proportion to their protein.

One assay has as its system MDA-MB-231/ATCC. The settings on record: Homo sapiens, MDA-MB-231, 48 h. The procedure:
(§1) All the newly synthesised 28 compounds were selected for single-dose testing. NCI60 single-dose testing is performed in all 60 cell lines according to the reported assay (National Cancer Institute, https://dtp.cancer.gov/) (National Cancer Institute https://dtp.cancer.gov/discovery_development/nci-60/), compounds were dissolved in DMSO: glycerol […] and are stored in a −70 °C freezer. The prepared compounds were added at single concentration of 1 0^−5 M and the culture was incubated for 48 h. End point determinations were made with a protein binding dye, sulforhodamine B (SRB). The human tumour cell lines were derived from nine different cancer types: leukaemia, melanoma, lung, colon, central nervous system (CNS), ovarian, renal, prostate, and breast cancers. Dose–response curves for these compounds were created by plotting the percentage growth (PGs or % growth) against log10 of the corresponding concentration for every cell line. Three response parameters, GI50 (Median Growth Inhibitory Concentration), TGI (Total Growth Inhibitory Concentration), and LC50 (Median Lethal Concentration) were calculated[54] (National Cancer Institute, https://dtp.cancer.gov/discovery_development/nci-60/) (National Cancer Institute, https://dtp.cancer.gov/)[55] for compounds 5a and 6a. […] Furthermore, the average sensitivity of all cell lines towards the compound is termed as the full panel mean graph midpoints (MG-MID). The ratio obtained by dividing the full panel mean graph midpoints (MG-MID) concentration by the individual subpanel MG-MID concentrations (obtained as the average sensitivity of all cell lines of a particular subpanel towards the test compound) is considered a criterion for the compound selectivity towards the corresponding cell line. Ratios greater than 6 indicate high selectivity while ratios between 3 and 6 refer to moderate selectivity whereas compounds not meeting either of these criteria were rated non-selective[56].

Another assay concerns M14. Particulars: Homo sapiens, M14, 48 h. How it is done: as §1
For a further assay, the system named is HOP-92. Particulars: Homo sapiens, HOP-92, 48 h. The procedure:
as §1

In the next assay the test system is NCI-H322M. Particulars: Homo sapiens, NCI-H322M, 48 h. The procedure: as §1
In another assay the test system is BT-549. The settings on record: Homo sapiens, BT-549, 48 h. The procedure:
as §1

Another assay has as its system OVCAR-3. The settings on record: Homo sapiens, OVCAR-3, 48 h. The procedure:
as §1

The subject of another assay is RXF 393. Particulars: Homo sapiens, RXF 393, 48 h. How it is done: as §1
Another assay concerns SF-268. The settings on record: Homo sapiens, SF-268, 48 h. The procedure:
as §1

The test system of a further assay is NCI-H226. Particulars: Homo sapiens, NCI-H226, 48 h. The procedure:
as §1

A further assay deals with SK-OV-3. The settings on record: Homo sapiens, SK-OV-3, 48 h. How it is done:
as §1

For another assay, the system named is SR. The settings on record: Homo sapiens, SR, 48 h. The procedure:
as §1

The test system of the next assay is EKVX. Particulars: Homo sapiens, EKVX, 48 h. How it is done:
as §1

The next assay deals with NCI-H23. Particulars: Homo sapiens, NCI-H23, 48 h. How it is done: as §1
The next assay has as its system SF-539. The settings on record: Homo sapiens, SF-539, 48 h. How it is done: as §1
The test system of another assay is HCT-15. Particulars: Homo sapiens, HCT-15, 48 h. The procedure:
as §1

A further assay has as its system HS 578T. The settings on record: Homo sapiens, Hs-578T, 48 h. How it is done: as §1
For a further assay, the system named is IGROV1. Particulars: Homo sapiens, IGROV-1, 48 h. The procedure: as §1

For orientation: GI50 means the concentration giving 50% growth inhibition.

`N=C(NO)C1=C(N)Oc2c(ccc3ccccc23)C1c1ccccc1` (stereo not shown) [5a, 2-Amino-4-phenyl-N-hydroxy-4H-benzo[h]chromene-3-carboxamidine]: the GI50 amounted to 0.63 µM in the assay with MDA-MB-231/ATCC (read-out: GI50 5a); 0.13 µM with M14 (read-out: GI50 5a); 0.82 µM in the assay on HOP-92 (read-out: GI50 5a); 0.66 µM with NCI-H322M (read-out: GI50 5a); 1.25 µM in the assay on BT-549 (read-out: GI50 5a); 0.18 µM with OVCAR-3 (read-out: GI50 5a). In addition, the GI50 in the assay on RXF 393 (read-out: GI50 5a) is 0.2 µM; in the assay on SF-268 (read-out: GI50 5a), 1.32 µM; in the assay on NCI-H226 (read-out: GI50 5a), 8.01 µM; in the assay with SK-OV-3 (read-out: GI50 5a), 0.62 µM; with SR (read-out: GI50 5a) it was 0.1 µM; with EKVX (read-out: GI50 5a), 0.82 µM. Besides, the GI50 is 0.47 µM with NCI-H23 (read-out: GI50 5a); 0.21 µM in the assay on SF-539 (read-out: GI50 5a); 0.13 µM in the assay with HCT-15 (read-out: GI50 5a); 0.23 µM in the assay with HS 578T (read-out: GI50 5a); 0.33 µM in the assay on IGROV1 (read-out: GI50 5a).

Regarding `CC(=O)NC1=C(C#N)C(c2ccccc2)c2ccc3ccccc3c2O1` (stereo not shown) [6a, N-(3-Cyano-4-phenyl-4H-benzo[h]chromen-2-yl)acetamide], the GI50 in the assay on MDA-MB-231/ATCC (read-out: GI50 6a) was determined as 1.25 µM; in the assay on M14 (read-out: GI50 6a) it was 0.56 µM; in the assay with HOP-92 (read-out: GI50 6a), 0.61 µM; with NCI-H322M (read-out: GI50 6a), 0.82 µM; in the assay on BT-549 (read-out: GI50 6a), 0.99 µM; with OVCAR-3 (read-out: GI50 6a), 0.34 µM. In addition, the GI50 in the assay with RXF 393 (read-out: GI50 6a) stood at 0.27 µM; in the assay on SF-268 (read-out: GI50 6a) it was 0.93 µM; with NCI-H226 (read-out: GI50 6a), 1.85 µM; in the assay on SK-OV-3 (read-out: GI50 6a) it was 0.49 µM; with SR (read-out: GI50 6a), 0.47 µM; with EKVX (read-out: GI50 6a), 49.9 µM. The concentration for 50% growth inhibition (GI50) was found to be 0.73 µM in the assay with NCI-H23 (read-out: GI50 6a); 0.35 µM in the assay on SF-539 (read-out: GI50 6a); 0.51 µM in the assay on HCT-15 (read-out: GI50 6a); 0.36 µM in the assay on HS 578T (read-out: GI50 6a); 0.53 µM in the assay on IGROV1 (read-out: GI50 6a).
